Patent EP0451791A2, “Long acting liposome compositions containing peptid drugs and method for their preparation” (HOECHST AKTIENGESELLSCHAFT, priority 1990, dated 1991)

Test system: weiblicher Ratten
Assay: Cycle (oestrus) suppression in female rats after s.c. injection, weekly vaginal smear (Beispiel 2)
Type: in vivo
Details: HOE 013 solution 60 μg daily, liposomes single dose 3200 μg HOE 013
Experimental: 2 x 1 ml der Liposomen (entspr. einer Einmalgabe von 3200 µg HOE 013) aus Beispiel 1 werden subkutan weiblichen Ratten von ca. 200 g Körpergewicht injiziert. Als Kontrolle dient eine gleiche Testgruppe von Tieren, die nur Lösungsmittel (Kochsalzlösung) erhält (Placebo) und eine Gruppe von Tieren, die mit täglichen Gaben von LHRH-Antagonist-Lösung (60 µg) (in 5 %iger Mannitlösung) behandelt wird. Die Östrussuppression der Tiere wird durch wöchentlichen Östrusabstrich überprüft. Am Tag 35 wird die Konzentration von HOE 013 im Urin gemessen und die 24 h-Ausscheidung berechnet.
Die Ergebnisse (s. Tabelle 1) zeigen, daß die Tiere der Liposomengruppe im Gegensatz zu den beiden Kontrollgruppen nach 35 Tagen noch deutlich supprimiert sind. Die Exkretionsrate am Tag 35 (4,5 µg) belegt eine signifikante Ausscheidung des Antagonisten im Falle der Liposomenpräparation. Diese Exkretionsrate ist mit der Plasmakonzentration eng korreliert.

Measured: Ratten mit Zuyklussuppression/ Ratten pro Gruppe

Ac-D-Nal-p-Cl-D-Phe-D-Trp-Ser Tyr-D-Ser (α-L-Rha)-Leu-Arg-Pro-Azagly-NH₂ [HOE 013]
0/11: Tag 1 of vaginal cytology | Tag 7 of vaginal cytology | Tag 14 of vaginal cytology | Tag 21 of vaginal cytology | Tag 28 of vaginal cytology | Tag 35 of vaginal cytology
